Values after ≈ are worked out from the molar mass of the structure shown. Read-outs that look alike come from different tables or passages of the source.
Tests used:
SARS-CoV-2 RdRp = SARS-CoV-2 RdRp (Severe acute respiratory syndrome coronavirus 2, UniProt P0DTD1); test: biochemical; settings: for inhibition at 25 µM / inhibition at 100 µM: SARS-CoV-2 RdRp; for inhibition at 25 µM: compound at 25 µM, read-out: % inhib 25 µM; for inhibition at 100 µM: compound at 100 µM, read-out: % inhib 100 µM
[1] = 24 h, pH 7.4
in vitro = settings: mouse, microsomes, pH 7.4
3CL^pro = settings: viral protease 3CLpro, cited from earlier work; for IC50: in vitro
[2] = In vitro plasma stability; settings: for stability in blood plasma (in words): mouse plasma, measured time span 120 min; for half-life at 2 µM: mouse, plasma
M^pro = settings: cited from earlier work
NTPase/helicase = settings: cited from earlier work
[3] = Aqueous kinetic solubility in PBS pH 7.4; settings: PBS neutral buffer pH 7.4, 25 °C, 24 h, target 250 µM, 2.5% DMSO

Row | Structure (SMILES) | IC50 (SARS-CoV-2 RdRp) [µM] | inhibition at 25 µM (SARS-CoV-2 RdRp) [%] | inhibition at 100 µM (SARS-CoV-2 RdRp) [%] | kinetic solubility (Sk) [1] [µM] | half-life at 4.6 µM (in vitro) [h] | IC50 (3CL^pro) [µM] | stability in blood plasma (in words) [2] | half-life at 2 µM [2] [h] | activity against SARS-CoV Mpro (M^pro) | activity against SARS-CoV NTPase/helicase (NTPase/helicase) | Ki (3CL^pro) [µM] | kinetic solubility (Sk) [3] [µM]
1 | O=c1cc(-c2ccc(O)c(O)c2)oc2cc(O)cc(O)c12 [Luteolin, luteolin] | 4.6 ± 0.3 | 89 | 100 | 21 ± 4 (≈ 6.01 µg/mL) | > 1 | 20 | stable in the measured time span | > 2 |  |  |  | 
2 | O=c1c(O)c(-c2ccc(O)c(O)c2)oc2cc(O)cc(O)c12 [Quercetin, quercetin] |  | 81 | 100 |  | > 1 | 24 | poorly stable | 0.117 ± 0.0333 | active | active | ~7 | 16 ± 5 (≈ 4.84 µg/mL)

Source: PMC9216299, “Quercetin and luteolin are single-digit micromolar inhibitors of the SARS-CoV-2 RNA-dependent RNA polymerase” (Scientific Reports, 2022)
